# Test: Displacement of [3H]PAF from rabbit PAF receptor
# Parameters: species or system Oryctolagus cuniculus
row,IC50,SMILES
1,1.3 µM,O=C(/C=C/C(O)Cc1ccccc1)CCc1ccccc1 (stereo not drawn)
2,5 µM,O=C(/C=C/CCc1ccccc1)CCc1ccccc1
3,1.6 µM,COC(CCc1ccccc1)CC(=O)CCc1ccccc1 (stereo not drawn)
